Results from the supplement of paper PMC10331698.
± gives the standard deviation of the averaged measurements.

Key:
Assay in all cases: level (log10 ratio to DMSO vehicle control); higher = higher biomarker level / cell amount than vehicle control
Settings in all cases: in DMSO
[1] = compound: COC(=O)C(F)(F)C(F)(F)OC(F)(C(F)(F)F)C(F)(F)OC(F)=C(F)F [Methyl perfluoro(3-(1-ethenyloxypropan-2-yloxy)propanoate)]
Outline: (§1)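 BioMAP Diversity Plus human primary cell co-cultures got test substances 1 h before cytokine or activator stimulation, then 24 h incubation (MyoF 48 h; BT 72 h, or 6 d for secreted IgG), one well per endpoint, final DMSO < 0.1%. Biomarkers were read by ELISA, cell amount by sulforhodamine B, and PBMC viability/proliferation by Alamar Blue. Each well was divided by the mean of 8 same-plate DMSO wells and log10 transformed. Duplicate blinded samples were averaged.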

[2] = compound: FC(F)(F)C(F)(F)C(F)(F)C(F)(F)C(F)(F)C(F)(F)CC1CO1 [3-(Perfluorohexyl)-1,2-epoxypropane]
Outline: as §1

[3] = compound: FC(F)(F)C(F)(F)C(F)(F)CC1CO1 [1H,1H-Heptafluorobutyl epoxide]
Outline: as §1

Heptafluorobutyl iodide = compound: FC(F)(F)C(F)(F)C(F)(F)CI [Heptafluorobutyl iodide]
Outline: as §1

Nonafluoropentanamide = compound: NC(=O)C(F)(F)C(F)(F)C(F)(F)C(F)(F)F [Nonafluoropentanamide]
Outline: as §1

[4] = compound: NC(=O)C(F)(F)C(F)(F)C(F)(F)C(F)F
Outline: as §1

[5] = compound: O=C(O)C(F)(F)C(F)(F)C(F)(F)C(F)(F)C(F)(F)C(F)(F)C(F)(F)C(F)(F)C(F)(F)C(F)F [11-H-Perfluoroundecanoic acid]
Outline: as §1

Test System	level (log10) ([1]; 6700 nM)	level (log10) ([1]; 20000 nM)	level (log10) ([2]; 6700 nM)	level (log10) ([2]; 20000 nM)	level (log10) ([2]; 60000 nM)	level (log10) ([3]; 6700 nM)	level (log10) ([3]; 20000 nM)	level (log10) ([3]; 60000 nM)	level (log10) (Heptafluorobutyl iodide; 6700 nM)	level (log10) (Heptafluorobutyl iodide; 20000 nM)	level (log10) (Heptafluorobutyl iodide; 60000 nM)	level (log10) (Nonafluoropentanamide; 6700 nM)	level (log10) (Nonafluoropentanamide; 20000 nM)	level (log10) (Nonafluoropentanamide; 60000 nM)	level (log10) ([4]; 6700 nM)	level (log10) ([4]; 20000 nM)	level (log10) ([4]; 60000 nM)	level (log10) ([5]; 6700 nM)	level (log10) ([5]; 20000 nM)
KF3CT:SRB	0.005 ± 0.013	0.0125 ± 0.0078	-0.0075 ± 0.0021	-0.008	0 ± 0.013	-0.001 ± 0.0085	0.001 ± 0.0028	-0.001 ± 0.0057	-0.002 ± 0.0028	0 ± 0.0042	0.001 ± 0.016	-0.001	-0.004 ± 0.0071	0.0085 ± 0.015	-0.006 ± 0.0028	-0.0005 ± 0.0064	-0.002 ± 0.013	-0.01 ± 0.017	-0.012 ± 0.0014
KF3CT:TIMP-2	0.0105 ± 0.018	0.0265 ± 0.0092	-0.0095 ± 0.0064	-0.014 ± 0.013	0.003 ± 0.041	0.039 ± 0.0042	-0.006 ± 0.016	0.0365 ± 0.06	-0.023 ± 0.018	0.0135 ± 0.00071	-0.0125 ± 0.015	-0.0245 ± 0.0092	-0.007 ± 0.011	0.011 ± 0.037	-0.006 ± 0.0057	-0.005 ± 0.013	0.0015 ± 0.019	-0.001 ± 0.0071	-0.012 ± 0.0071
KF3CT:uPA	0.014 ± 0.021	0.0325 ± 0.019	0.006 ± 0.011	0.001 ± 0.011	-0.0015 ± 0.005	-0.0085 ± 0.047	0.017 ± 0.067	-0.019 ± 0.033	0.003 ± 0.0014	-0.0155 ± 0.011	-0.014 ± 0.0028	0.0205 ± 0.011	0.019 ± 0.0042	0.011 ± 0.013	0.008 ± 0.025	-0.0125 ± 0.028	-0.008 ± 0.021	-0.003	0.0055 ± 0.0092
LPS:CD40	0.0235 ± 0.035	-0.0365 ± 0.022	-0.0115 ± 0.012	0.01 ± 0.014	-0.0045 ± 0.015	0.0165 ± 0.054	0.0105 ± 0.053	0.026 ± 0.024	-0.045 ± 0.018	-0.0035 ± 0.013	0.001 ± 0.0057	0.002 ± 0.038	-0.008 ± 0.068	0.0015 ± 0.035	-0.0125 ± 0.029	-0.0045 ± 0.018	-0.03 ± 0.017	-0.0115 ± 0.015	-0.0505 ± 0.03
LPS:CD69	-0.0435 ± 0.0078	-0.053 ± 0.013	-0.024 ± 0.013	-0.0225 ± 0.015	-0.0195 ± 0.0078	-0.012 ± 0.031	-0.0365 ± 0.029	0.0095 ± 0.018	-0.0635 ± 0.011	-0.054 ± 0.013	-0.021 ± 0.048	-0.0545 ± 0.046	-0.042 ± 0.05	-0.001 ± 0.025	0.006 ± 0.027	0.021 ± 0.035	0.0225 ± 0.061	-0.024	-0.057
LPS:CD141/Thrombomodulin	-0.05 ± 0.0099	-0.071 ± 0.027	-0.0405 ± 0.0035	-0.038 ± 0.0099	-0.0545 ± 0.0064	0.059 ± 0.0071	0.039 ± 0.079	0.019 ± 0.033	0.0135 ± 0.14	0.0175 ± 0.14	0.0485 ± 0.1	0.005 ± 0.027	0.018 ± 0.035	0.0435 ± 0.035	-0.037 ± 0.023	-0.0225 ± 0.028	-0.02 ± 0.021	0.0875 ± 0.057	0.051 ± 0.092
LPS:CD142/Tissue Factor	-0.0235 ± 0.00071	0.009 ± 0.011	-0.023 ± 0.0057	-0.0095 ± 0.032	0.0015 ± 0.039	0.011 ± 0.014	0.0085 ± 0.018	0.015 ± 0.0085	-0.046 ± 0.1	-0.013 ± 0.082	0.0295 ± 0.043	0.0085 ± 0.019	0.0165 ± 0.0078	-0.013 ± 0.017	-0.0215 ± 0.00071	0.005 ± 0.0028	-0.007 ± 0.0014	0.012 ± 0.034	-0.033 ± 0.041
LPS:CXCL8/IL-8	0.019 ± 0.0042	0.0355 ± 0.019	-0.0205 ± 0.011	-0.0135 ± 0.021	0.0015 ± 0.035	-0.019 ± 0.031	-0.0135 ± 0.028	0.003 ± 0.031	0.022 ± 0.13	0.042 ± 0.076	0.087 ± 0.0071	-0.034 ± 0.028	-0.002 ± 0.034	0.032 ± 0.052	-0.0055 ± 0.0035	-0.0025 ± 0.035	0.016 ± 0.12	-0.0065 ± 0.023	0.016 ± 0.011
LPS:IL-1alpha	0.0045 ± 0.022	0.0515 ± 0.011	0.003 ± 0.018	0.012 ± 0.041	0.028 ± 0.027	-0.027 ± 0.023	-0.0115 ± 0.023	0.0085 ± 0.022	0.019 ± 0.11	0.0205 ± 0.023	0.0485 ± 0.029	-0.1 ± 0.011	-0.102 ± 0.0099	-0.0555 ± 0.0092	0.009 ± 0.011	-0.0045 ± 0.015	0.0015 ± 0.06	-0.022 ± 0.011	0.004 ± 0.031
MyoF:CD106/VCAM-1	-0.03 ± 0.0014	-0.0365 ± 0.019	0.002 ± 0.013	0.013 ± 0.013	0.0205 ± 0.015	-0.007 ± 0.013	-0.007 ± 0.038	-0.0205 ± 0.03	-0.003 ± 0.0085	-0.018 ± 0.0071	-0.0055 ± 0.00071	-0.016 ± 0.0014	-0.003	0.0055 ± 0.016	-0.0085 ± 0.013	-0.0205 ± 0.013	-0.0235 ± 0.013	0.0035 ± 0.0078	-0.152 ± 0.02
MyoF:Collagen I	-0.007 ± 0.011	0.0095 ± 0.019	-0.011 ± 0.018	-0.003 ± 0.0028	0.007 ± 0.02	0.013 ± 0.018	-0.0025 ± 0.00071	-0.0105 ± 0.012	-0.0015 ± 0.0035	-0.0195 ± 0.005	0.013 ± 0.018	-0.015 ± 0.025	-0.0085 ± 0.047	0.001 ± 0.0071	-0.0115 ± 0.015	-0.002 ± 0.02	0.006 ± 0.017	-0.0625 ± 0.0092	-0.312 ± 0.023
MyoF:Collagen III	-0.0145 ± 0.013	-0.005 ± 0.0071	0.007 ± 0.0028	0.003 ± 0.011	0.0065 ± 0.011	-0.007 ± 0.011	-0.012 ± 0.011	-0.012 ± 0.0042	-0.0095 ± 0.019	-0.033 ± 0.013	-0.0205 ± 0.033	-0.029 ± 0.021	-0.0335 ± 0.036	-0.0145 ± 0.0092	0.003	0.0135 ± 0.00071	-0.0065 ± 0.035	-0.0405 ± 0.005	-0.475 ± 0.079
MyoF:PAI-I	0.0105 ± 0.0035	0.0315 ± 0.0078	0.011 ± 0.0099	-0.0035 ± 0.00071	0.0055 ± 0.0021	-0.005 ± 0.024	-0.0105 ± 0.012	0 ± 0.016	-0.0105 ± 0.0021	-0.005 ± 0.0028	0.007 ± 0.023	0.006 ± 0.011	0.012 ± 0.0057	0.021 ± 0.0014	-0.0125 ± 0.013	-0.0125 ± 0.0064	0.005 ± 0.018	0.0105 ± 0.012	-0.013 ± 0.02
